In patent US7078022B2, “Sunscreen compositions and methods of use thereof” (Avon Products, Inc., priority 2002, dated 2006):
Counter-ions that a name gives are not always drawn.

Key:
[1] = UV spectrum (UV absorbance, FIG. 1); type: physicochemical
Excerpt: FIG. 1 is a Ultraviolet (UV) spectrum showing the UV absorbance of 3-[2-(4-diethylaminophenyl)-2-oxoethyl]thiazolium salt.
FIG. 1 provides the UV spectrum for 3-[2-(4-diethylaminophenyl)-2-oxoethyl]thiazolium salt. […] The maximum UV absorption occurs at a wavelength of 350 nm.

[2] = tested on: skin; experiment: Skin elasticity and wrinkling; settings: no method or data given

- wavelength of maximum UV absorption [1]: 350 nm
Structure (SMILES): CCN(CC)c1ccc(C(=O)C[n+]2ccsc2)cc1 [3-[2-(4-diethylaminophenyl)-2-oxoethyl]thiazolium salt]
- UV absorbing properties ([1]; UV-A range): excellent UV absorber, particularly in the UV-A range
- elasticity of skin [2]: improve the elasticity
- wrinkling of skin [2]: reduce the wrinkling of skin
